pIC50: −log10 of the molar value. Where a name gives a salt, the structure may show the parent alone.
Each compound was assayed on KMS.12.BM cells (assay: KMS.12.BM Cell Viability Assay (Example B1)). Settings: Homo sapiens, 72 h, 3 days, Cell Titer-GLO, read-out: KMS cellular IC50.
Assay type: cell-based, human
Procedure, shortened: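 KMS.12.BM human myeloma cells, 5000 cells/well in RPMI with 10% FBS, exposed to a compound concentration range for 3 days. Viable cells measured by ATP-based Cell Titer-GLO luminescence after 10 min at room temperature.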
With `Cc1noc(C)c1-c1ccc2nc(N3CC[C@@H](NC(=O)C(F)(F)F)C3)n3c2c1OC[C@@H]3c1ccccn1` [Example 203, N-{(3R)-1-[(4S)-7-(3,5-dimethylisoxazol-4-yl)-4-pyridin-2-yl-4,5-dihydroimidazo[1,5,4-de][1,4]benzoxazin-2-yl]pyrrolidin-3-yl}-2,2,2-trifluoroacetamide] the pIC50 was over 6.00.
`COCC(=O)N[C@@H]1CCN(c2nc3ccc(-c4c(C)noc4C)c4c3n2[C@@H](c2ccccn2)CO4)C1` [Example 205, N-{(3R)-1-[(4S)-7-(3,5-dimethylisoxazol-4-yl)-4-pyridin-2-yl-4,5-dihydroimidazo[1,5,4-de][1,4]benzoxazin-2-yl]pyrrolidin-3-yl}-2-methoxyacetamide] was tested, and the pIC50 was over 6.00.
With `Cc1noc(C)c1-c1ccc2nc(N3CC[C@@H](NC(=O)C4CC4)C3)n3c2c1OC[C@@H]3c1ccccn1` [Example 206, N-{(3R)-1-[(4S)-7-(3,5-dimethylisoxazol-4-yl)-4-pyridin-2-yl-4,5-dihydroimidazo[1,5,4-de][1,4]benzoxazin-2-yl]pyrrolidin-3-yl}cyclopropanecarboxamide] the pIC50 was over 6.00.
For `Cc1noc(C)c1-c1ccc2nc(N3CC[C@@H](NS(C)(=O)=O)C3)n3c2c1OC[C@@H]3c1ccccn1` [Example 207, N-{(3R)-1-[(4S)-7-(3,5-dimethylisoxazol-4-yl)-4-pyridin-2-yl-4,5-dihydroimidazo[1,5,4-de][1,4]benzoxazin-2-yl]pyrrolidin-3-yl}methanesulfonamide], the pIC50 was over 6.00.
In the case of `CCC(=O)N[C@@H]1CCN(c2nc3ccc(-c4c(C)noc4C)c4c3n2[C@@H](c2ccccn2)CO4)C1` [Example 208, N-{(3R)-1-[(4S)-7-(3,5-dimethylisoxazol-4-yl)-4-pyridin-2-yl-4,5-dihydroimidazo[1,5,4-de][1,4]benzoxazin-2-yl]pyrrolidin-3-yl}propanamide], the pIC50 was over 6.00.
For `Cc1noc(C)c1-c1ccc2nc(N3CC[C@@H](NC(=O)C(C)C)C3)n3c2c1OC[C@@H]3c1ccccn1` [Example 209, N-{(3R)-1-[(4S)-7-(3,5-dimethylisoxazol-4-yl)-4-pyridin-2-yl-4,5-dihydroimidazo[1,5,4-de][1,4]benzoxazin-2-yl]pyrrolidin-3-yl}-2-methylpropanamide], the pIC50 was over 6.00.
`Cc1noc(C)c1-c1ccc2nc(N3CC[C@@H](NC(=O)C4CCC4)C3)n3c2c1OC[C@@H]3c1ccccn1` [Example 210, N-{(3R)-1-[(4S)-7-(3,5-dimethylisoxazol-4-yl)-4-pyridin-2-yl-4,5-dihydroimidazo[1,5,4-de][1,4]benzoxazin-2-yl]pyrrolidin-3-yl}cyclobutanecarboxamide] gave a pIC50 of over 6.00.
`Cc1noc(C)c1-c1ccc2nc(N3CC[C@@H](NC(=O)CC#N)C3)n3c2c1OC[C@@H]3c1ccccn1` [Example 211, 2-cyano-N-{(3R)-1-[(4S)-7-(3,5-dimethylisoxazol-4-yl)-4-pyridin-2-yl-4,5-dihydroimidazo[1,5,4-de][1,4]benzoxazin-2-yl]pyrrolidin-3-yl}acetamide] gave a pIC50 of over 6.00.
`Cc1noc(C)c1-c1ccc2nc(N3CC[C@@H](NC(=O)C4CCOCC4)C3)n3c2c1OC[C@@H]3c1ccccn1` [Example 213, N-{(3R)-1-[(4S)-7-(3,5-dimethylisoxazol-4-yl)-4-pyridin-2-yl-4,5-dihydroimidazo[1,5,4-de][1,4]benzoxazin-2-yl]pyrrolidin-3-yl}tetrahydro-2H-pyran-4-carboxamide] was tested, and the pIC50 was over 6.00.
Work on `CCS(=O)(=O)N[C@@H]1CCN(c2nc3ccc(-c4c(C)noc4C)c4c3n2[C@@H](c2ccccn2)CO4)C1` [Example 214, N-{(3R)-1-[(4S)-7-(3,5-dimethylisoxazol-4-yl)-4-pyridin-2-yl-4,5-dihydroimidazo[1,5,4-de][1,4]benzoxazin-2-yl]pyrrolidin-3-yl}ethanesulfonamide] yielded a pIC50 of over 6.00.
`CCCS(=O)(=O)N[C@@H]1CCN(c2nc3ccc(-c4c(C)noc4C)c4c3n2[C@@H](c2ccccn2)CO4)C1` [Example 215, N-{(3R)-1-[(4S)-7-(3,5-dimethylisoxazol-4-yl)-4-pyridin-2-yl-4,5-dihydroimidazo[1,5,4-de][1,4]benzoxazin-2-yl]pyrrolidin-3-yl}propane-1-sulfonamide] showed a pIC50 of over 6.00.
With `Cc1noc(C)c1-c1ccc2nc(N3CC[C@@H](NS(=O)(=O)C(C)C)C3)n3c2c1OC[C@@H]3c1ccccn1` [Example 217, N-{(3R)-1-[(4S)-7-(3,5-dimethylisoxazol-4-yl)-4-pyridin-2-yl-4,5-dihydroimidazo[1,5,4-de][1,4]benzoxazin-2-yl]pyrrolidin-3-yl}propane-2-sulfonamide] the pIC50 was over 6.00.
Compound `Cc1noc(C)c1-c1ccc2nc(N3CC[C@@H](NS(=O)(=O)C4CC4)C3)n3c2c1OC[C@@H]3c1ccccn1` [Example 218, N-{(3R)-1-[(4S)-7-(3,5-dimethylisoxazol-4-yl)-4-pyridin-2-yl-4,5-dihydroimidazo[1,5,4-de][1,4]benzoxazin-2-yl]pyrrolidin-3-yl}cyclopropanesulfonamide] has a pIC50 of over 6.00.
For `Cc1noc(C)c1-c1ccc2nc(N3CC[C@@H](N(C)S(C)(=O)=O)C3)n3c2c1OC[C@@H]3c1ccccn1` [Example 220, N-{(3R)-1-[(4S)-7-(3,5-dimethylisoxazol-4-yl)-4-pyridin-2-yl-4,5-dihydroimidazo[1,5,4-de][1,4]benzoxazin-2-yl]pyrrolidin-3-yl}-N-methylmethanesulfonamide], the pIC50 was over 6.00.
Compound `COCC(=O)N(C)[C@@H]1CCN(c2nc3ccc(-c4c(C)noc4C)c4c3n2[C@@H](c2ccccn2)CO4)C1` [Example 221, N-{(3R)-1-[(4S)-7-(3,5-dimethylisoxazol-4-yl)-4-pyridin-2-yl-4,5-dihydroimidazo[1,5,4-de][1,4]benzoxazin-2-yl]pyrrolidin-3-yl}-2-methoxy-N-methylacetamide] has a pIC50 of over 6.00.
For `CC(=O)N(C)[C@@H]1CCN(c2nc3ccc(-c4c(C)noc4C)c4c3n2[C@@H](c2ccccn2)CO4)C1` [Example 222, N-{(3R)-1-[(4S)-7-(3,5-dimethylisoxazol-4-yl)-4-pyridin-2-yl-4,5-dihydroimidazo[1,5,4-de][1,4]benzoxazin-2-yl]pyrrolidin-3-yl}-N-methylacetamide], the pIC50 was over 6.00.
Work on `CC(=O)N1CCN(c2nc3ccc(-c4c(C)noc4C)c4c3n2[C@@H](c2ccccn2)CO4)CC1` [Example 224, (4S)-2-(4-acetylpiperazin-1-yl)-7-(3,5-dimethylisoxazol-4-yl)-4-pyridin-2-yl-4,5-dihydroimidazo[1,5,4-de][1,4]benzoxazine] yielded a pIC50 of over 6.00.
For `CCC(=O)N1CCN(c2nc3ccc(-c4c(C)noc4C)c4c3n2[C@@H](c2ccccn2)CO4)CC1` [Example 225, (4S)-7-(3,5-dimethylisoxazol-4-yl)-2-(4-propionylpiperazin-1-yl)-4-pyridin-2-yl-4,5-dihydroimidazo[1,5,4-de][1,4]benzoxazine], the pIC50 was over 6.00.
For `CCS(=O)(=O)N1CCN(c2nc3ccc(-c4c(C)noc4C)c4c3n2[C@@H](c2ccccn2)CO4)CC1` [Example 226, (4S)-7-(3,5-dimethylisoxazol-4-yl)-2-[4-(ethylsulfonyl)piperazin-1-yl]-4-pyridin-2-yl-4,5-dihydroimidazo[1,5,4-de][1,4]benzoxazine], the pIC50 was over 6.00.
With `Cc1noc(C)c1-c1ccc2nc(N3CCN(CC(=O)N4CCCC4)CC3)n3c2c1OC[C@@H]3c1ccccn1` [Example 228, (4S)-7-(3,5-dimethylisoxazol-4-yl)-2-[4-(2-oxo-2-pyrrolidin-1-ylethyl)piperazin-1-yl]-4-pyridin-2-yl-4,5-dihydroimidazo[1,5,4-de][1,4]benzoxazine] the pIC50 was over 6.00.
Compound `Cc1noc(C)c1-c1ccc2nc(N3CCN(S(N)(=O)=O)CC3)n3c2c1OC[C@@H]3c1ccccn1` [Example 229, 4-[(4S)-7-(3,5-dimethylisoxazol-4-yl)-4-pyridin-2-yl-4,5-dihydroimidazo[1,5,4-de][1,4]benzoxazin-2-yl]piperazine-1-sulfonamide] has a pIC50 of over 6.00.
`Cc1noc(C)c1-c1ccc2nc(N3CC(N)C3)n3c2c1OC[C@@H]3c1ccccn1` [Example 230, 1-[(4S)-7-(3,5-dimethylisoxazol-4-yl)-4-pyridin-2-yl-4,5-dihydroimidazo[1,5,4-de][1,4]benzoxazin-2-yl]azetidin-3-amine trihydrochloride] showed a pIC50 of over 6.00.
For `CC(=O)NC1CN(c2nc3ccc(-c4c(C)noc4C)c4c3n2[C@@H](c2ccccn2)CO4)C1` [Example 231, N-{1-[(4S)-7-(3,5-dimethylisoxazol-4-yl)-4-pyridin-2-yl-4,5-dihydroimidazo[1,5,4-de][1,4]benzoxazin-2-yl]azetidin-3-yl}acetamide], the pIC50 was over 6.00.
Compound `CCC(=O)NC1CN(c2nc3ccc(-c4c(C)noc4C)c4c3n2[C@@H](c2ccccn2)CO4)C1` [Example 232, N-{1-[(4S)-7-(3,5-dimethylisoxazol-4-yl)-4-pyridin-2-yl-4,5-dihydroimidazo[1,5,4-de][1,4]benzoxazin-2-yl]azetidin-3-yl}propanamide] has a pIC50 of over 6.00.
In the case of `Cc1noc(C)c1-c1ccc2nc(N3CC(NC(=O)C(C)C)C3)n3c2c1OC[C@@H]3c1ccccn1` [Example 233, N-{1-[(4S)-7-(3,5-dimethylisoxazol-4-yl)-4-pyridin-2-yl-4,5-dihydroimidazo[1,5,4-de][1,4]benzoxazin-2-yl]azetidin-3-yl}-2-methylpropanamide], the pIC50 was over 6.00.
In the case of `COCC(=O)NC1CN(c2nc3ccc(-c4c(C)noc4C)c4c3n2[C@@H](c2ccccn2)CO4)C1` [Example 234, N-{1-[(4S)-7-(3,5-dimethylisoxazol-4-yl)-4-pyridin-2-yl-4,5-dihydroimidazo[1,5,4-de][1,4]benzoxazin-2-yl]azetidin-3-yl}-2-methoxyacetamide], the pIC50 was over 6.00.
Compound `Cc1noc(C)c1-c1ccc2nc(N3CC(NC(=O)C4CC4)C3)n3c2c1OC[C@@H]3c1ccccn1` [Example 235, N-{1-[(4S)-7-(3,5-dimethylisoxazol-4-yl)-4-pyridin-2-yl-4,5-dihydroimidazo[1,5,4-de][1,4]benzoxazin-2-yl]azetidin-3-yl}cyclopropanecarboxamide] has a pIC50 of over 6.00.
